# Assay results: PubChem BioAssay AID1988 (Broad Institute, 2009)
# Inconclusive results are not listed.
# System: H4 cells, SNCA 5'UTR luciferase reporter translation
# Test: alpha-synuclein stem-loop luciferase translation blockers – luminescence, confirmation (AID 1988)
row,Structure (SMILES),EC50 [µM]
1,C#CCOCCOCCOCCNc1nc(N2CCN(C(=O)CCCCCCCCCCNC(=O)[C@H](CO)n3cc(CCCSC)nn3)CC2)nc(N2CCN(C(=O)CCCCCCCCCCNC(=O)[C@H](CCCCN)n3cc(C[C@@H](C)CC)nn3)CC2)n1,7.11
2,COc1ccc(O)c2c(=O)c3c(OC)cc4c(c3oc12)C1C=COC1O4 (stereo not drawn),< 0.1
3,C=C(C=O)CC1CC(O)[C@]2(C)OC3CC4OC5C[C@]6(C)O[C@]7(C)CCC8OC9C[C@]%10(C)OC%11C(C)=CC(=O)OC%11CC%10OC9C[C@@H](C)C8OC7CC6O[C@]5(C)CC5OC5C4OC3CC2O1 (stereo partly drawn),7.35
